Experimental data from patent publication US12258561B2, “Compositions and methods to promote bone formation and their uses including for the treatment of cancer” (THE RESEARCH FOUNDATION FOR THE STATE UNIVERSITY OF NEW YORK, priority 2014, dated 2025).

Assays:
[1] = system: posterolateral lumbar spine; test: Rat posterolateral spinal fusion of L5-L6 vertebrae, microCT; assay type: in vivo, Sprague-Dawley rats; settings: 2-months
From the text: Rat Posterolateral Spinal Fusion of L5-L6 Vertebrae: 20 male, […] skeletally mature Sprague-Dawley rats underwent bilateral lumbar posterolateral spinal fusion at the L5-L6 vertebrae. […] Under sterile conditions a 2-cm long posterior midline incision centered at L5-L6 vertebrae was made. A muscle-splitting approach was used, lateral to the facet joints, to expose the transverse processes of a particular vertebra. A high-speed 1-mm burr was used to decorticate the transverse processes of the L5-L6 vertebrae. Implants were prepared and implanted between the transverse processes bilaterally in the paraspinal muscle bed. […] Animals were euthanized 2-months (n=5 rats per time point per treatment group for a total of n=20 rats) spines were collected and prepared for micro-CT (μCT) analysis.

monocyte cultures = test: Assay of cell number (MTT) in monocyte cultures; assay type: cell-based, human; settings: naloxone added to monocyte cultures
From the text: Methods: Human Bone Marrow was Collected from Consenting Adult Patients undergoing either an elective primary proximal femoral total hip arthroplasty or elective primary distal femoral total knee arthroplasty (n=6, mean age 65) as a part of an IRB approved study. Human MSC were derived from the adherent fraction of cells derived from each whole bone marrow aspirate collected, while the monocyte population was collected from the non-adherent fraction of the bone marrow. The monocyte fraction was enriched through sub-culture with 100-ng/mL recombinant human macrophage colony-stimulating factor (MCSF; Wyeth). In parallel experiments described below, the femurs from 3-week (n=10) and 16-week (n=20) old male mice were collected and then the bone marrow was flushed from the femur according to the following: A 21-gauge needle was inserted into the femoral intramedular canal after the removal of the proximal and distal ends of the femur. […]
Assay of Cell Number: Following the addition of 1-mM naloxone or 1-mM naltrexone, viable cell number was determined with the MTT assay. […] MTT was measured at 570-nm and the effects of therapy on cell proliferation were determined by normalizing treated wells relative to mean values from non-treated wells: Fold change in cell number=100*[treated cells optical density/mean control optical density].

[2] = system: MSC cultures induced to become osteoblasts; test: Osteogenesis: mineral formation in MSC with osteoinduction media (alizarin red-S staining); assay type: cell-based, human
From the text: Methods: Human Bone Marrow was Collected from Consenting Adult Patients undergoing either an elective primary proximal femoral total hip arthroplasty or elective primary distal femoral total knee arthroplasty (n=6, mean age 65) as a part of an IRB approved study. Human MSC were derived from the adherent fraction of cells derived from each whole bone marrow aspirate collected, while the monocyte population was collected from the non-adherent fraction of the bone marrow. The monocyte fraction was enriched through sub-culture with 100-ng/mL recombinant human macrophage colony-stimulating factor (MCSF; Wyeth). In parallel experiments described below, the femurs from 3-week (n=10) and 16-week (n=20) old male mice were collected and then the bone marrow was flushed from the femur according to the following: A 21-gauge needle was inserted into the femoral intramedular canal after the removal of the proximal and distal ends of the femur. Media was then carefully passed through the proximal end of the femur, which forced the bone marrow to pass out of the bone. Finally, the bone marrow pellet was mechanically disassociated using an 18-gauge needle and then passed through a 70-μm mesh filter. These whole bone marrow aspirates were used to generate osteoclasts. Cells were maintained in Dulbecco's Modification of Eagle's Media (DMEM) containing 10% fetal calf serum (v/v) and 1% penicillin-streptomycin-glutamine (PSG; Cellgro, Mediatech). […] The responsible IACUC committee approved all of the animal studies described in this work.
Osteogenesis: Osteogenic potential in MSC was assayed by chemically inducing mineral formation. MSC from at least three human patients were seeded at 5×10^3 cells per well and allowed to become confluent and woven prior to the addition of osteo-induction media. Induction media consisted of DMEM containing 20% FCS (v/v) and 1% PSG supplemented with 25-μg/mL of acscorbic-2-phosphate (Sigma), 100-nM dexamethasone (Sigma) and the following dosing regimen of β-glycerophosphate (BGP; Sigma): 1× media change with 5-mM BGP, 1× media change with 10-mM BGP and 1× media change with 20-mM of BGP. Met5-ligand (0-, [5-μM] 2.87-, or [50-μM] 28.7-μg; Sigma), naloxone (0-, 400-fg, 400-pg, 400-ng, 400-μg; Sigma) or naltrexone (0-, 378-fg, 378-pg, 378-ng, 378-μg; Sigma) was added as follows: 1) 1×, with the first addition of osteo-induction media, 2) 2×, with the first and second addition of osteo-induction media and 3) with each post-induction media change. […] After the appearance of mineral nodules, cells were fixed with 70% ice-cold EtOH (Sigma) and then stained using 40-mM alizarin red-S (pH 4.2, Sigma). Osteogenesis experiments were repeated at least twice for each patient.

[3] = system: RDES Ewing's sarcoma of bone tumor cells; test: Assay of cell number (MTT), RDES cells; assay type: cell-based; settings: 1-mM, seventy-two hours
From the text: (§1) Methods: Human bone marrow was collected from consenting adult patients undergoing either an elective primary proximal femoral total hip arthroplasty or elective primary distal femoral total knee arthroplasty (n=6, mean age 65) as a part of an IRB approved study. Human MSC were derived from the adherent fraction of whole bone marrow aspirates. Ewing's sarcoma tumor cells (RDES, Hs822 and Hs863) and SaOS2 osteosarcoma tumor cells were obtained from ATCC. Cells were maintained in Dulbecco's Modification of Eagle's Media (DMEM) containing 10% fetal calf serum (v/v) and 1% penicillin-streptomycin-glutamine (PSG; Cellgro, Mediatech).
(§2) Assay of Cell Number: Following the addition of 1-mM naloxone or 1-mM naltrexone, viable cell number was determined with the MTT assay. After 72-hours and 120-hours, MTT (5 mg/ml (w/v), Sigma) was added to each well, incubated for 2-hours, after which the cells lysed with 500-μl of DMSO (Sigma). MTT was measured at 570-nm and the effects of therapy on cell proliferation were determined by normalizing treated wells relative to mean values from non-treated wells: Fold change in cell number=100*[treated cells optical density/mean control optical density].

[4] = system: SaO52 osteosarcoma tumor cells; test: Assay of cell number (MTT), osteosarcoma cells; assay type: cell-based; settings: 1-mM, seventy-two hours
From the text: as §1, §2

With `C=CCN1CC[C@]23c4c5ccc(O)c4O[C@H]2C(=O)CC[C@@]3(O)[C@H]1C5` [naloxone] the “bone formation in the lumbar spine versus collagen implants alone” value ([1]; collagen sponge implant, 25-ng BMP2 or 1-mM naloxone) was “increased bone formation over the collagen implants alone”, the “Bv/Tv relative to spines implanted with collagen or the control sham surgery group” value ([1]; naloxone infused collagen implant, 1-mM) was “substantial increase in By/Tv” and the “proliferation (cell number) in monocyte cultures” value (monocyte cultures) was “decreased proliferation”. For the same compound, the “mineral accumulation, effect against met5” value ([2]; 1-mM naloxone added with 5-μM or 50-μM met5 and osteoinduction media) was “abrogate the anti-osteogenic effects of met5”, the “mineral accumulation (red staining)” value ([2]; between 1-μM and 1-mM with osteoinduction media) was “substantially increased mineral accumulation” and the mineral accumulation ([2]; continuous dosing, with every media change) was “slightly depressed”. For the same compound, the mineral accumulation ([2]; double 'pulse' dose (2x), 1-mM, second 72-hours after the first) was “substantial increase in mineral accumulation”, the mineral accumulation ([2]; single 'pulse' dose (1x), 1-mM) was “substantial increase in mineral accumulation” and the “RDES tumor cell number relative to control cultures” value [3] was “decreased significantly”. For the same compound, the “SaO52 osteosarcoma cell number relative to control cultures” value [4] was “decreased significantly”.
